This experiment concerns the target T1, ArSqgA (Arthrobacter sp. U41, UniProt Z9RXK5N058).
T1 construct: synthetic gene with codons harmonized for E. coli; homodimer; GH188
T1 sequence (Z9RXK5N058 14-392): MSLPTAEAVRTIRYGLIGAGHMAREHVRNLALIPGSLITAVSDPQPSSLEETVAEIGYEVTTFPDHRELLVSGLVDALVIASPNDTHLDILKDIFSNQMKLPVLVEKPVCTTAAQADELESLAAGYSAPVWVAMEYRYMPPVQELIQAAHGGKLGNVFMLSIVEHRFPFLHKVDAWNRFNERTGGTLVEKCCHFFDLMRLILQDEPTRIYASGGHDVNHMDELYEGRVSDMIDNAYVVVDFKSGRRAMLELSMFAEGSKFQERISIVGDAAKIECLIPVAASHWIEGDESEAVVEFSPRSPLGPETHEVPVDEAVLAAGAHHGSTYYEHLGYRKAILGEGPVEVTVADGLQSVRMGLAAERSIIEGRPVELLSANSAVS
Description: X-ray crystal structure, […] Å. The experiment is classed as binding. The settings on record: Rossmann domain cleft; binary complex.

Molecules are shown by their SMILES.

In the case of `NC(=O)c1ccc[n+]([C@@H]2O[C@H](COP(=O)(O)OP(=O)(O)OC[C@H]3O[C@@H](n4cnc5c(N)ncnc54)[C@H](O)[C@@H]3O)[C@@H](O)[C@H]2O)c1` [NAD^+], the “X-ray crystal structure, 2.65 Å” value is “modeling of a single molecule of NAD^+ bound in an extended conformation in each monomer”.

These data come from paper PMC10755693, “Widespread Family of NAD^+-Dependent Sulfoquinovosidases at the Gateway to Sulfoquinovose Catabolism” (Journal of the American Chemical Society, 2023).
